Assay results as given in PubChem BioAssay AID1259407 (Chemical Carcinogenesis Research Information System (CCRIS), 2018).
Active and inactive are the calls of the source. No rule for the calls is given here.

Test system: CCRIS mutagenicity, Ames/micronucleus/aberration tests
Assay: CCRIS mutagenicity studies

Measured: mutagenic call

O=C(O)c1ccc(ON2P(Oc3ccc(C(=O)O)cc3)N=P(Oc3ccc(C(=O)O)cc3)(Oc3ccc(C(=O)O)cc3)N(Oc3ccc(C(=O)O)cc3)P2Oc2ccc(C(=O)O)cc2)cc1 (stereo unspecified)
inactive: Test System: AMES SALMONELLA TYPHIMURIUM, Strain/Indicator: TA98, Metabolic Activation: NONE, Method: STANDARD PLATE inactive; negative | Test System: AMES SALMONELLA TYPHIMURIUM, Strain/Indicator: TA98, Metabolic Activation: RAT, LIVER, S-9, AROCLOR 1254, Method: STANDARD PLATE inactive; negative | Test System: AMES SALMONELLA TYPHIMURIUM, Strain/Indicator: TA100, Metabolic Activation: NONE, Method: STANDARD PLATE inactive; negative | Test System: AMES SALMONELLA TYPHIMURIUM, Strain/Indicator: TA100, Metabolic Activation: RAT, LIVER, S-9, AROCLOR 1254, Method: STANDARD PLATE inactive; negative

C1CCC2=NCCCN2CC1
inactive: Test System: Mouse lymphoma, Strain/Indicator: L5178Y (tk+/tk-), Metabolic Activation: None, Method: Suspension/plate inactive; negative | Test System: Mouse lymphoma, Strain/Indicator: L5178Y (tk+/tk-), Metabolic Activation: Rat, Liver, S-9, Aroclor 1254, Method: Suspension/plate inactive; negative
